# Molecular target: T1, UCHL1 (Homo sapiens, UniProt P09936)
# T1 sequence (P09936 1-220): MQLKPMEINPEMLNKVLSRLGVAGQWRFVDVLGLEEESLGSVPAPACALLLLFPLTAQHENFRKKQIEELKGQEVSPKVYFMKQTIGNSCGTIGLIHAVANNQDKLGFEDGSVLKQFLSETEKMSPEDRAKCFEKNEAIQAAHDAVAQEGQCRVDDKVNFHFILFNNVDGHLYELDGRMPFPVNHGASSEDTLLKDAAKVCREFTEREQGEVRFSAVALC
# Test: in vitro DUB IC50 assay
# Type: biochemical
smiles,measurement,value
N#CN1CC[C@H](C(=O)Nc2ncc(N3CCOCC3)s2)C1 [6RK73],IC50,230 nM
